In patent US20070293666A1, “Optical Filter and Its Applications, and Porphyrin Compound Used in Optical Filter” (Mitsui Chemicals, Inc., priority 2004, published 2007):

Key:
Type in all cases: physicochemical
[1] = High temperature/high humidity test of optical filter; settings: 60° C. and 90% RH
Procedure: (§1) With respect to the optical filters obtained from the compounds (3-A) and (3-B), environmental accelerated tests of high temperature, high-temperature/high-humidity and artificial sunlight irradiation were carried out. In the test, a constant temperature chamber at 80° C. (DN-61, manufactured by Yamato Scientific Co., Ltd.), a constant temperature and humidity chamber at 60° C. and 90% RH (Product name, FX2200, manufactured by Kusumoto Chemicals, Ltd.) and a solar simulator (manufactured by Ushio Inc.) were respectively used. A visible light ray in a wavelength of from 380 to 780 nm was irradiated on a surface of the ultraviolet blocking film of the above optical filter at 50 mW/cm^2 for a predetermined time in a room at a temperature of 30±10° C. and a humidity of 50±20%.
(§2) The above optical filters were kept under each environmental condition for 500 hours and 1000 hours, and light transmittance of the optical filter was measured by using the spectrophotometer after 500 hours and 1000 hours. An absorption retention rate in a maximum absorption wavelength after each environmental accelerated test was obtained from the above equation (2).

[2] = Light transmittance of optical filter (dye-containing acrylic adhesive sheet, 1000 ppm dye); settings: dye 1000 (wt)ppm in acrylic adhesive, 25 μm
Procedure: When the compound (3-A) was dispersed and dissolved in a solvent of ethyl acetate and toluene (weight ratio 50:50) and dried, a dye-containing diluting agent for an acrylic adhesive was prepared such that the dye concentration in the resin was 1000 (wt)ppm. Subsequently, the acrylic adhesive (a copolymer of butyl acrylate and acrylic acid (Product name: DBBOND, manufactured by Diabond Industry Co., Ltd.)) and a dye-containing diluting agent were mixed (weight ratio 80:20), and continuously applied on a mold releasing layer of a mold releasing film comprising a polyethylene terephthalate film and a silicone mold releasing layer according to a bar coating method, and the resulting material was dried. Then, the other mold releasing film was attached to the coating surface to prepare a dye-containing adhesive sheet having a thickness of 25 μm with mold releasing films having different mold releasing forces at both sides.
The mold releasing film on one side of the prepared adhesive sheet was peeled away and the resulting sheet was attached to a transparent acrylic resin (manufactured by Mitsubishi Rayon Co., Ltd., Acrylite, thickness: 2 mm), while the mold releasing film on the other side thereof was further peeled away and an ultraviolet blocking film (manufactured by Teijin Co., Ltd., HB Film, thickness: 75 μm) was attached to prepare an optical filter.
With respect to the obtained optical filter, the light transmittance in a wavelength of from 300 to 800 nm was measured by using a spectrophotometer (Product name: U-3400, manufactured by Hitachi, Ltd.) in accordance with JIS R3106. A percentage of light transmittance at a wavelength of 550 nm to light transmittance at a wavelength of 525 nm was obtained.

[3] = High temperature test of optical filter; settings: 80° C.
Procedure: A dye-containing diluting agent was prepared such that the dye concentration in the resin was 1000 (wt)ppm when the dye was dispersed and dissolved in a solvent and dried. Subsequently, an acrylic adhesive (a copolymer of butyl acrylate and acrylic acid (Product name: DBBOND, manufactured by Diabond Industry Co., Ltd.) and the dye-containing diluting agent are mixed (weight ratio 80:20), and continuously applied on a mold releasing layer of a mold releasing film comprising a polyethylene terephthalate film and a silicone mold releasing layer according to the bar coating method, and the resulting material was dried. Due to this, an acrylic adhesive containing the dye having a film thickness of 25 μm was prepared. The prepared adhesive was attached to a transparent acrylic resin (manufactured by Mitsubishi Rayon Co., Ltd., Acrylite, thickness: 2 mm), and the mold releasing film of the adhesive was peeled away and an ultraviolet blocking film (manufactured by Teijin Co., Ltd., HB Film, thickness: 75 μm) was attached to give the sample for evaluation. […]
The above optical filters were kept under each environmental condition for 500 hours and 1000 hours, and light transmittance of the optical filter was measured by using the spectrophotometer after 500 hours and 1000 hours. […]

Solubility in acetone = experiment: Solubility in acetone; set-up: key: ∘: completely dissolved; x: not completely dissolved; settings: for Solubility 0.1%: 0.1 weight % based on acetone; for Solubility 0.2%: 0.2 weight % based on acetone; for Solubility 1.0%: 1.0 weight % based on acetone
Procedure: (§3) Compounds represented by the compound Nos. 1-1, 1-2, 1-3, 1-4 and 1-7 (Table 1-1) were synthesized in the same manner as in Examples 1-1 and 1-2. With respect to compounds synthesized in Example 1-2 and Synthesis Example 1-1 along with these compounds, the maximum absorption wavelength (λmax), the gram absorption coefficient (εg) and solubility were measured.
(§4) λmax and εg are values in the chloroform solution, while the solubility is weight % based on acetone.

[4] = Light resistance test / artificial sunlight irradiation test of optical filter; settings: visible light 380 to 780 nm; for Absorption Retention after Light resistance test for 250 hours: 50 mW/cm^2, 250 hours, 30±10° C., humidity 50±20%
Procedure: To evaluate light resistance of the dye, a sample prepared in the same method as in evaluation of heat resistance is used. The absorption retention rate represented by the above equation (1) is measured in the same manner as in heat resistance. However, in this case, the obtained sample is not kept under the environment of 80° C., but the above visible light ray is irradiated on a side of the ultraviolet blocking film of the sample in a room at a temperature of 30±10° C., a humidity of 50±20% for a predetermined time. Tmax,1 represents light transmittance in a maximum absorption wavelength after the above visible light ray is irradiated for a predetermined time. When there are a plurality of absorption maxima, Tmax,0 is light transmittance at a maximum absorption wavelength showing the highest absorption coefficient. Tmax,1 represents light transmittance at the same wavelength as that in Tmax,0 or at a maximum absorption wavelength nearest to the wavelength in Tmax,0.
With respect to the optical filters obtained from the compounds (3-A) to (3-F), environmental accelerated tests were carried out by artificial sunlight irradiation using a solar simulator (manufactured by Ushio Inc.). A visible light ray in a wavelength of from 380 to 780 nm was irradiated on the ultraviolet blocking film of the prepared optical filter at 50 mW/cm^2 for 250 hours in a room at a temperature of 30±10° C. and a humidity of 50±20%. At this time, an absorption retention rate represented by the above equation (1) was obtained.
as §1, §2

[5] = Absorption spectrum in chloroform (maximum absorption wavelength, gram absorption coefficient, 550/525 nm coefficient ratio); settings: for εg (gram absorption coefficient) / λmax: chloroform solution; for Ratio of Absorption Coefficient at 525 nm and 550 nm: coefficient at 550 nm to coefficient at 525 nm
Procedure: as §3, §4
With respect to the compounds represented by the compound Nos. 1-2, 1-3, 1-6 and 1-7 synthesized in Examples 1-2 and 1-3 (corresponding to compounds (3-B), (3-C), (3-E) and (3-F) respectively) along with the obtained compound (3-A), the maximum absorption wavelength and the ratio of the absorption coefficient at a wavelength of 550 nm to the absorption coefficient at a wavelength of 525 nm, which were measured in a chloroform solvent, are shown in Table 3-1. [drawing 26] [drawing 27] [drawing 28] [drawing 29]

[6] = Light transmittance of spin-coated optical filter (acrylic adhesive on glass plate); settings: 0.1 weight % dye diluting agent mixed with acrylic adhesive, dry film 5 μm
Procedure: (§5) A compound represented by the compound No. 1-4 (Table 1-1) was dissolved in a mixed solvent of acetone and toluene (weight ratio 50:50) such that the concentration was 0.1 weight % to give a dye-containing diluting agent. An acrylic adhesive and the dye-containing diluting agent (weight ratio 50:70) were mixed and applied by spin coating at 800 rpm for 30 seconds onto a glass plate, and the resulting material was dried to prepare an optical filter. The dry film thickness of the coating layer was 5 μm. In the above filter, light transmittance was measured by using a spectrophotometer (UV-3100, manufactured by Shimadzu Corporation). Light transmittance in a wavelength of 550 nm was 47.2%.
as §5, with “2-12” for “1-4”, “2-2) synthesized in the same manner as in Examples 2-1 and 2-2” for “1-1)”, “plate” for “plate,”, “Light transmittance in a wavelength of 550 nm was 47.2%.” left out

Row | Absorption retention rate, High temperature/High humidity test, after 500 hours ([1]; 500 hours) [%] | Absorption retention rate, High temperature/High humidity test, After 1000 hours ([1]; 1000 hours) [%] | Light Transmittance at 525 nm [2] [%] | Light Transmittance at 550 nm [2] [%] | T@550/T@525 Light Transmittance Ratio [2] [%] | Absorption retention rate, High temperature test, after 500 hours ([3]; 500 hours) [%] | Absorption retention rate, High temperature test, After 1000 hours ([3]; 1000 hours) [%] | Solubility 0.1% (Solubility in acetone) | Solubility 0.2% (Solubility in acetone) | Solubility 1.0% (Solubility in acetone) | Absorption Retention after Light resistance test for 250 hours [4] [%] | Absorption retention rate, Artificial sunlight irradiation test, after 500 hours ([4]; 50 mW/cm^2, 500 hours) [%] | Absorption retention rate, Artificial sunlight irradiation test, After 1000 hours ([4]; 50 mW/cm^2, 1000 hours) [%] | εg (gram absorption coefficient) [5] | λmax [5] [nm] | Maximum Absorption Wavelength ([5]; chloroform solvent) [nm] | Ratio of Absorption Coefficient at 525 nm and 550 nm ([5]; chloroform solvent) | Light transmittance in a wavelength of 550 nm [6] [%] | Maximum Absorption Wavelength ([5]; in chloroform) [nm] | gram absorption coefficient ([5]; in chloroform) | SMILES
1 | 91 | 90 | 62.6 | 37.2 | 59 | 100 | 100 | ∘ | ∘ | ∘ | 95 | 95 | 93 | 154,000 | 553 | 553 | 2.5 |  |  |  | CCCCCOc1ccc(C2=c3nc(c4c5cccc6cccc(c3=4)c65)C(c3ccc(OCCCCC)cc3)=c3c4c(c5[n]3[Cu][n]3c2c2c(c3C(c3ccc(OCCCCC)cc3)=c3nc(c6c7cccc8cccc(c3=6)c87)C=5c3ccc(OCCCCC)cc3)-c3cccc5cccc-2c35)-c2cccc3cccc-4c23)cc1 [1-2]
2 |  |  | 69.1 | 49.8 | 72 |  |  | ∘ | ∘ | ∘ | 80 |  |  | 122,000 | 553 | 553 | 2.3 |  |  |  | CCCCCCOc1ccc(C2=c3nc(c4c5cccc6cccc(c3=4)c65)C(c3ccc(OCCCCCC)cc3)=c3c4c(c5[n]3[Cu][n]3c2c2c(c3C(c3ccc(OCCCCCC)cc3)=c3nc(c6c7cccc8cccc(c3=6)c87)C=5c3ccc(OCCCCCC)cc3)-c3cccc5cccc-2c35)-c2cccc3cccc-4c23)cc1 [1-3]
3 |  |  |  |  |  |  |  | ∘ | ∘ | ∘ |  |  |  | 115,000 | 552 |  |  | 47.2 |  |  | CCCCCCCCCCOc1ccc(C2=c3nc(c4c5cccc6cccc(c3=4)c65)C(c3ccc(OCCCCCCCCCC)cc3)=c3c4c(c5[n]3[Cu][n]3c2c2c(c3C(c3ccc(OCCCCCCCCCC)cc3)=c3nc(c6c7cccc8cccc(c3=6)c87)C=5c3ccc(OCCCCCCCCCC)cc3)-c3cccc5cccc-2c35)-c2cccc3cccc-4c23)cc1 [1-4]
4 |  |  | 61.7 | 57.5 | 93 |  |  | ∘ | ∘ | ∘ | 97 |  |  | 135,000 | 536 | 536 | 1.2 |  | 536 | 135,000 | CCCCCCCCCCOc1ccc(C2=c3nc(c4c5cccc6cccc(c3=4)c65)C(c3ccc(OCCCCCCCCCC)cc3)=c3c4c(c5[n]3[Ni][n]3c2c2c(c3C(c3ccc(OCCCCCCCCCC)cc3)=c3nc(c6c7cccc8cccc(c3=6)c87)C=5c3ccc(OCCCCCCCCCC)cc3)-c3cccc5cccc-2c35)-c2cccc3cccc-4c23)cc1 [1-6]
5 |  |  | 72.0 | 66.6 | 93 |  |  | ∘ | ∘ | ∘ | 94 |  |  | 122,000 | 552 | 552 | 1.4 |  |  |  | CCCCCCCCCCOc1ccc(C2=c3nc(c4c5ccc(Cl)c6c(Cl)ccc(c3=4)c65)C(c3ccc(OCCCCCCCCCC)cc3)=c3c4c(c5[n]3[Ni][n]3c2c2c(c3C(c3ccc(OCCCCCCCCCC)cc3)=c3nc(c6c7ccc(Cl)c8c(Cl)ccc(c3=6)c87)C=5c3ccc(OCCCCCCCCCC)cc3)-c3ccc(Cl)c5c(Cl)ccc-2c35)-c2ccc(Cl)c3c(Cl)ccc-4c23)cc1 [1-7]
6 |  |  | 59.7 | 38.1 | 64 |  |  |  |  |  | 92 |  |  |  |  | 546 | 2.2 |  |  |  | CC(C)(C)c1ccc(C2=c3nc(c4c5cccc6cccc(c3=4)c65)C(c3ccc(C(C)(C)C)cc3)=c3c4c(c5[n]3[Cu][n]3c2c2c(c3C(c3ccc(C(C)(C)C)cc3)=c3nc(c6c7cccc8cccc(c3=6)c87)C=5c3ccc(C(C)(C)C)cc3)-c3cccc5cccc-2c35)-c2cccc3cccc-4c23)cc1 [3-D]
